Source: patent publication US11028051B2, “Tetrahydroquinoline-based bromodomain inhibitors” (St. Jude Children's Research Hospital, priority 2016, dated 2021)
Like-named read-outs stand apart in the source and are kept apart here.

Experiments:
BRD4-BD2 = BRD4-BD2 (Homo sapiens (Human), UniProt O60885); test: competitive TR-FRET assay, BET-BD with acetylated peptide ligand; format: binding; details: BRD4-BD2; Table 11 additional modifications; read-out: 4.2 EC50
Method: (§1) Inhibitor potency was determined using a competitive TR-FRET assay as detailed herein, measuring interaction of the respective BET-BD with an acetylated peptide ligand (Table 2).

BRD2-BD1 = BRD2-BD1 (Homo sapiens (Human), UniProt P25440); test: as above; format: binding
Method: as §1

BRD4-BD1 = BRD4-BD1 (Homo sapiens (Human), UniProt O60885); test: as above; format: binding; details: BRD4-BD1; Table 11 additional modifications; read-out: 4.1 EC50
Method: as §1

BRD2-BD2 = BRD2-BD2 (Homo sapiens (Human), UniProt P25440); test: as above; format: binding; details: for 2.1/2.2: ratio of BRD2-BD1 EC50 to BRD2-BD2 EC50 (selectivity)
Method: as §1

BRD3-BD1 = BRD3-BD1 (Homo sapiens (Human), UniProt Q15059); test: as above; format: binding
Method: as §1

BRDT = BRDT (Homo sapiens, UniProt Q58F21); test: as above; format: binding
Method: as §1

BRD2(1) = BRD2(1) (Homo sapiens (Human), UniProt P25440); test: BROMOscan KD determination; format: binding; details: Table 10
Text: (§2) DiscoverX® can screen compounds against all ˜42 bromodomains (a service called BROMOscan) and perform follow-up KD determination. This service is considered the industrial standard for bromodomain inhibitor comparisons. […] Dots are symbolic of inhibition of the compound at this concentration; the larger the size of the dot, the greater the activity of the compound. […] Though these compounds are selective for the BET family, the selectivity within the BET family is poor. The results of a competitive binding experiment between compounds 19 (left), 41 (center), and 56 (right) (at a single concentration, 1 μM) and a control for each of the bromodomains are shown in FIG. 5.

BRDT(1) = BRDT(1) (Homo sapiens (Human), UniProt Q58F21); test: BROMOscan KD determination; format: binding; details: Table 10
Text: as §2

BRD2(2) = BRD2(2) (Homo sapiens (Human), UniProt P25440); test: BROMOscan KD determination; format: binding; details: for [2(1)/2(2)]: BROMOscan KD ratio; for Kd: BROMOscan, Table 10
Text: as §2

BRDT(2) = BRDT(2) (Homo sapiens (Human), UniProt Q58F21); test: BROMOscan KD determination; format: binding; details: for T(1)/T(2): BROMOscan KD ratio; for Kd: BROMOscan, Table 10
Text: as §2

BRD3(2) = BRD3(2) (Homo sapiens (Human), UniProt Q15059); test: BROMOscan KD determination; format: binding; details: for 3(1)/3(2): BROMOscan KD ratio; for Kd: BROMOscan, Table 10
Text: (§3) DiscoverX® can screen compounds against all ˜42 bromodomains (a service called BROMOscan) and perform follow-up KD determination. This service is considered the industrial standard for bromodomain inhibitor comparisons.

BRD3(1) = BRD3(1) (Homo sapiens (Human), UniProt Q15059); test: BROMOscan KD determination; format: binding; details: Table 10
Text: as §3

BRD4(1) = BRD4(1) (Homo sapiens (Human), UniProt O60885); test: BROMOscan KD determination; format: binding; details: Table 10
Text: as §3

BRD4(2) = BRD4(2) (Homo sapiens (Human), UniProt O60885); test: BROMOscan KD determination; format: binding; details: for 4(1)/4(2): BROMOscan KD ratio; for Kd: BROMOscan, Table 10
Text: as §3

HDMB03 cells = test: cell viability, CellTiter-Glo; format: cell-based, human; details: Homo sapiens, read-out: EC50 (μM) HDMB03
Method: Human G3 medulloblastoma or mouse SHH medulloblastoma cells were grown as neurospheres in supplemented neurobasal medium, as previously described (Kawauchi et al., 2012.)
(§4) After 7 days of treatment, an equal volume of CellTiter-Glo reagent (G7572, Promega) was added and the luminescence signal was measured using an automated Envision plate reader (Perkin-Elmer). Luminescence data were normalized by log10 transformation prior to calculating the percent inhibition using the following equation:
(§5) 100*(negative control mean −compound value)/(negative control mean −positive control mean).
High-throughput assay data were analyzed using Robust Interpretation of Screening Experiments (RISE) application written in Pipeline Pilot (Accelrys, v. 8.5) and the R program (R Development Core Team).
Dose-response curves were calculated by regressing the median percent inhibition obtained over triplicate experiments to log 10-transformed concentrations. Non-linear regression was then performed using the R drc package with the four parameter log-logistic function (LL2.4) (Ritz and Streibig, 2009). Curves were fit under three different constraints: (1) all parameters free, (2) high response fixed to 100, (3) low response fixed to 0; and the best fit from these three nested models was selected using the anova.drc function.

[1] = test system: c-Myc expression in HDMB03 cells; test: c-Myc expression inhibition, high content microscopy (HCM); format: cell-based, human; details: Homo sapiens, read-out: EC50 (μM) Myc-inhibition
MV-4-11 = test: anti-proliferative activity; format: cell-based; details: Homo sapiens, MV4-11; Table 7
Method: as §4, §5

[2] = BRD2-BD1, Table 11 additional modifications, read-out: 2.1 EC50
[3] = BRD2-BD2, Table 11 additional modifications, read-out: 2.2 EC50
[4] = BRD3-BD1, Table 11 additional modifications, read-out: 3.1 EC50
[5] = BRDT, Table 11 additional modifications, read-out: BRDT EC50
[6] = Table 6, read-out: EC50 (μM) BRD2(1)
[7] = Table 6, read-out: EC50 (μM) BRD2(2)
[8] = Table 6, read-out: EC50 (μM) BRD3(1)
[9] = Table 6, head names no target, BRDT by comparison with Table 4, read-out: EC50

BRD2(2), sequence (P25440 344-453): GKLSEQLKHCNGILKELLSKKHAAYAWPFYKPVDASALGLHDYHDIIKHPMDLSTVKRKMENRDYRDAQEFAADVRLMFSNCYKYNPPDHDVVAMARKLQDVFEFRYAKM
BRD2-BD2, sequence (P25440 344-453): as above
BRD3(2), sequence (Q15059 306-415): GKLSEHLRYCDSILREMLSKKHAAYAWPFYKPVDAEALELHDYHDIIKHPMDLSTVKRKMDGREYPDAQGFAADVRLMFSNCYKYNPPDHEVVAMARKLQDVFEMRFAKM
BRD2-BD1, sequence (P25440 74-180): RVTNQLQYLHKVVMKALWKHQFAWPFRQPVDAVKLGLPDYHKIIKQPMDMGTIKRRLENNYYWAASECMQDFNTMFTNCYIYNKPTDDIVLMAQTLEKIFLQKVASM
BRD2(1), sequence (P25440 74-180): as above
BRD3(1), sequence (Q15059 34-140): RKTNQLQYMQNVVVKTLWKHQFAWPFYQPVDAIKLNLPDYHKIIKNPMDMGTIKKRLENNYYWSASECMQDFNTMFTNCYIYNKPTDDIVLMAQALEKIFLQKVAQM
BRD3-BD1, sequence (Q15059 34-140): as above

SMILES | Kd (BRD2(1)) [nM] | Kd (BRDT(1)) [nM] | [2(1)/2(2)] (BRD2(2)) | Kd (BRD2(2)) [nM] | T(1)/T(2) (BRDT(2)) | Kd (BRDT(2)) [nM] | 3(1)/3(2) (BRD3(2)) | Kd (BRD3(2)) [nM] | Kd (BRD3(1)) [nM] | Kd (BRD4(1)) [nM] | 4(1)/4(2) (BRD4(2)) | Kd (BRD4(2)) [nM] | EC50 (BRD2-BD1; [6]) [µM] | [2(1)/2(2)] (BRD2-BD2; Table 6, ratio of EC50) | EC50 (BRD2-BD2; [7]) [µM] | EC50 (BRD3-BD1; [8]) [µM] | EC50 (BRDT; [9]) [nM] | EC50 (MV-4-11) [µM] | EC50 ([1]; HD-MB03, Table 7) [µM] | EC50 (HDMB03 cells; HD-MB03, Table 7) [µM] | other results
CC(=O)Nc1cccc(-c2ccc3c(c2)[C@H](Nc2ccc4ncccc4c2)C[C@H](C)N3C(C)=O)c1 [compound 13] | 28 | 20 | 14.0 | 2 | 2.9 | 6.9 | 28.2 | 0.78 | 22 | 17 | 13.1 | 1.3 |  |  |  |  |  |  |  |  | EC50 (BRD4-BD2): 60000 nM; EC50 (BRD2-BD1; [2]): 0.88 µM; EC50 (BRD4-BD1): 1300 nM; EC50 (BRD2-BD2; [3]): 59 µM; 2.1/2.2 (BRD2-BD2): 0.015; EC50 (BRD3-BD1; [4]): 1.1 µM; EC50 (BRDT; [5]): 2500 nM
CC(=O)Nc1cccc(-c2ccc3c(c2)[C@H](Nc2ccccc2C(F)(F)F)C[C@H](C)N3C(C)=O)c1 [compound 41] | 790 | 290 | 49.4 | 16 | 9.4 | 31 | 138.9 | 3.6 | 500 | 410 | 64.1 | 6.4 |  |  |  |  |  |  |  |  | EC50 (BRD2-BD1; Table 4, read-out: EC50 (μM) BRD2(1)): 70 µM; [2(1)/2(2)] (BRD2-BD2; Table 4, ratio of EC50): 57; EC50 (BRD2-BD2; Table 4, read-out: EC50 (μM) BRD2(2)): 0.35 µM; EC50 (BRD3-BD1; Table 4, read-out: BRD3(1)): 20 µM; EC50 (BRDT; Table 4, read-out: BRDT EC50): 53000 nM; EC50 (HDMB03 cells; HD-MB03, Table 5): 1.6 µM; EC50 ([1]; HD-MB03, Table 5): 6.2 µM
COC(=O)c1ccc(N[C@@H]2C[C@H](C)N(C(C)=O)c3ccc(-c4cccc(NCc5ccoc5)c4)cc32)cc1 [compound 43] |  |  |  |  |  |  |  |  |  |  |  |  | 0.51 | 10 | 0.05 | 0.41 | 1200 | 0.007 | 0.88 | 1.5 | 
CCCCCNc1cccc(-c2ccc3c(c2)[C@H](Nc2ccc(C(=O)OC)cc2)C[C@H](C)N3C(C)=O)c1 [compound 44] |  |  |  |  |  |  |  |  |  |  |  |  | 2.7 | 22.5 | 0.12 | 2.1 | 7400 | 0.035 | 0.3 | 0.39 | 
CCCCNc1cccc(-c2ccc3c(c2)[C@H](Nc2ccc(C(=O)OC)cc2)C[C@H](C)N3C(C)=O)c1 [compound 45] |  |  |  |  |  |  |  |  |  |  |  |  | 2.6 | 16.25 | 0.16 | 2.1 | 7300 | 0.083 | 0.38 | 0.56 | 

Second part, led by results:

Kd (BRD2(1)) [nM] | Kd (BRDT(1)) [nM] | [2(1)/2(2)] (BRD2(2)) | Kd (BRD2(2)) [nM] | T(1)/T(2) (BRDT(2)) | Kd (BRDT(2)) [nM] | 3(1)/3(2) (BRD3(2)) | Kd (BRD3(2)) [nM] | Kd (BRD3(1)) [nM] | Kd (BRD4(1)) [nM] | 4(1)/4(2) (BRD4(2)) | Kd (BRD4(2)) [nM] | EC50 (BRD2-BD1; [6]) [µM] | [2(1)/2(2)] (BRD2-BD2; Table 6, ratio of EC50) | EC50 (BRD2-BD2; [7]) [µM] | EC50 (BRD3-BD1; [8]) [µM] | EC50 (BRDT; [9]) [nM] | EC50 (MV-4-11) [µM] | EC50 ([1]; HD-MB03, Table 7) [µM] | SMILES | EC50 (HDMB03 cells; HD-MB03, Table 7) [µM] | other results
 |  |  |  |  |  |  |  |  |  |  |  | 1.3 | 7.6 | 0.17 | 1 | 2600 | 0.018 | 0.34 | CCCNc1cccc(-c2ccc3c(c2)[C@H](Nc2ccc(C(=O)OC)cc2)C[C@H](C)N3C(C)=O)c1 [compound 46] | 0.35 | 
41 | 21 | 8.2 | 5 | 2.6 | 8.1 | 16.1 | 2.3 | 37 | 32 | 11.4 | 2.8 | 2.3 | 7.2 | 0.32 | 1.9 | 5800 | 0.008 | 0.25 | COC(=O)c1ccc(N[C@@H]2C[C@H](C)N(C(C)=O)c3ccc(-c4cccc(NCCC(F)(F)F)c4)cc32)cc1 [compound 47] | 0.35 | 
23 | 17 | 13.5 | 1.7 | 6.1 | 2.8 | 6.9 | 1.6 | 11 | 14 | 12.7 | 1.1 |  |  |  |  |  |  |  | COC(=O)c1ccc(N[C@@H]2C[C@H](C)N(C(C)=O)c3ccc(-c4ccnn4C)cc32)cc1 [compound 49] |  | EC50 (BRD2-BD1; Table 8, read-out: EC50 (μM) BRD2(1)): 1.4 µM; EC50 (BRD2-BD2; Table 8, read-out: EC50 (μM) BRD2(2)): 0.14 µM; EC50 (BRD3-BD1; Table 8, read-out: BRD3(1)): 0.9 µM; EC50 (BRDT; Table 8, head names no target, BRDT by comparison with Table 4, read-out: EC50): 4400 nM; EC50 (HDMB03 cells; HD-MB03, Table 9, cancer cell proliferation inhibition): 1.6 µM; EC50 ([1]; HD-MB03, Table 9, c-Myc expression inhibition in HDMB03 cells): 5.1 µM
350 | 220 | 21.9 | 16 | 3.3 | 66 | 29.3 | 7.5 | 220 | 270 | 35.1 | 7.7 |  |  |  |  |  |  |  | CC(=O)N1c2ccc(-c3cccc(-n4cccn4)c3)cc2[C@H](Nc2ccc(Cl)cc2)C[C@@H]1C [compound 136] |  | EC50 (BRD4-BD2): 250 nM; EC50 (BRD2-BD1; [2]): 17 µM; EC50 (BRD4-BD1): 17000 nM; EC50 (BRD2-BD2; [3]): 0.19 µM; 2.1/2.2 (BRD2-BD2): 63; EC50 (BRD3-BD1; [4]): 10 µM; EC50 (BRDT; [5]): 10000 nM
